What was measured:
PI3K alfa = target: T1, PI3K alfa (Homo sapiens, UniProt P42336); assay: PI3 kinase assay (Kinase-Glo luminescence), PI3K alfa; assay type: biochemical; details: Enzymatic Data; read-out: PI3K alfa IC50 [umol]
T1 construct: for the p110-a subunit (with a deletion of the first 20 amino acids); His tag (C); made in house; host or cells: baculovirus; Tn5 (Trichoplusia ni) or TiniPro insect cells
Outline: (§1)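 Recombinant PI3K constructs (alfa 10 nM, delta 10 nM, gamma 150 nM) with 1 μM ATP and 10 μg/mL phosphatidylinositol in Tris pH 7.5, MgCl2, NaCl, CHAPS, DTT; 60 min (alfa, delta) or 120 min (gamma) at room temperature. ATP depletion read by Kinase-Glo luminescence; IC50 from 4-parameter logistic fit over 8 concentrations.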

PI3K delta = target: T2, PI3K delta (Homo sapiens, UniProt O00329); assay: PI3 kinase assay (Kinase-Glo luminescence), PI3K delta; assay type: biochemical; details: Enzymatic Data; read-out: PI3K delta IC50 [umol]
T2 construct: for the full-length p110-d subunit are generated and fused by overlapping PCR; His tag (C); made in house; host or cells: baculovirus; Tn5 (Trichoplusia ni) or TiniPro insect cells
Outline: as §1

PI3K beta = target: T3, PI3K beta (Homo sapiens, UniProt P42338); assay: PI3 kinase assay (Kinase-Glo luminescence), PI3K beta; assay type: biochemical; details: Enzymatic Data; read-out: PI3K beta IC50 [umol]
T3 construct: for the full-length p110-b subunit are generated and fused by overlapping PCR; His tag (C); made in house; host or cells: baculovirus; Tn5 (Trichoplusia ni) or TiniPro insect cells
Outline: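 PI3Kβ (25 nM, BV-949) with 10 μg/mL phosphatidylinositol in Tris pH 7.5/MgCl2/NaCl/CHAPS/DTT buffer; reaction started with 1 μM ATP, 60 min at room temperature. ATP depletion read by Kinase-Glo luminescence; 8-point dilutions, IC50 by four-parameter logistic fit.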

PI3K gamma = target: T4, PI3K gamma (Homo sapiens, UniProt P48736); assay: PI3 kinase assay (Kinase-Glo luminescence), PI3K gamma; assay type: biochemical; details: Enzymatic Data; read-out: PI3K gamma IC50 [umol]
T4 construct: PI3Kγ BV-950 p110g(D144aa)-C-Term His Tag; His tag (C); made in house; host or cells: construct from the Roger Williams lab (MRC LMB) in pVL1393; baculovirus; Tn5 (Trichoplusia ni) or TiniPro insect cells
Outline: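 Percent inhibition at eight concentrations (typically 10 to 0.003 […]) fitted to a four-parameter logistic model to give IC50. Reaction initiated with ATP; final ATP 1 μM and phosphatidylinositol 10 μg/mL; ATP consumption read by Kinase-Glo luminescence.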

T3 sequence (P42338 with tags, fused parts or gaps limits assumed): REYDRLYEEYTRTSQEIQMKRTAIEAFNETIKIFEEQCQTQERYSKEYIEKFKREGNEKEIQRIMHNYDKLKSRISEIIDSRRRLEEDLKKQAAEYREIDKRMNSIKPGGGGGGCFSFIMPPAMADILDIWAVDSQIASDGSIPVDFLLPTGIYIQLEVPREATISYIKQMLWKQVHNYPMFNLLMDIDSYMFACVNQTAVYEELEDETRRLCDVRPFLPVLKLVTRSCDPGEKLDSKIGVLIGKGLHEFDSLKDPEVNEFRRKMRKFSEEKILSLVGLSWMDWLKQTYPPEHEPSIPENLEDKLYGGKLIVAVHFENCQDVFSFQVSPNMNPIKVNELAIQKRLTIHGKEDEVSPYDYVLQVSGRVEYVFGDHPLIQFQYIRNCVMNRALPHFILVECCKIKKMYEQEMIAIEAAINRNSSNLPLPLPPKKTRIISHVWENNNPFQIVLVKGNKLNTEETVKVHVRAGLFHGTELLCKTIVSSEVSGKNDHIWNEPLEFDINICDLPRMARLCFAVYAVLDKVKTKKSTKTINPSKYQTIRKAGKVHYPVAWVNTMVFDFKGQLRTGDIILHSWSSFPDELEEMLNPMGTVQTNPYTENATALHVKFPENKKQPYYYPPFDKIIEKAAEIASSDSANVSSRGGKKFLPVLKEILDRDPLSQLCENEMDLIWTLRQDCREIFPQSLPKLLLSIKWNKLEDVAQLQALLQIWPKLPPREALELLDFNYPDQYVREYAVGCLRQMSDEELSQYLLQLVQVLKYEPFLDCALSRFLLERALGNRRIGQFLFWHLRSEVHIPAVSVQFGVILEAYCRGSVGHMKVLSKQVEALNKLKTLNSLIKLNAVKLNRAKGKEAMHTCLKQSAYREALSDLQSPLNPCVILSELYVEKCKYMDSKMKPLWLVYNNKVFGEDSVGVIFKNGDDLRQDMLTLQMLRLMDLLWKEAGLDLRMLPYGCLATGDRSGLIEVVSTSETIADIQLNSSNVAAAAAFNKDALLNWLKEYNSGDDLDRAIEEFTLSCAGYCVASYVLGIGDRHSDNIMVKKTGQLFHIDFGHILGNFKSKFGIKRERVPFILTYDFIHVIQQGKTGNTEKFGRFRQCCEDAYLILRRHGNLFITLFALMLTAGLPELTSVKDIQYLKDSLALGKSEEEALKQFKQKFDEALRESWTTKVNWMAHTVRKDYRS
T1 sequence (P42336 with tags, fused parts or gaps limits assumed): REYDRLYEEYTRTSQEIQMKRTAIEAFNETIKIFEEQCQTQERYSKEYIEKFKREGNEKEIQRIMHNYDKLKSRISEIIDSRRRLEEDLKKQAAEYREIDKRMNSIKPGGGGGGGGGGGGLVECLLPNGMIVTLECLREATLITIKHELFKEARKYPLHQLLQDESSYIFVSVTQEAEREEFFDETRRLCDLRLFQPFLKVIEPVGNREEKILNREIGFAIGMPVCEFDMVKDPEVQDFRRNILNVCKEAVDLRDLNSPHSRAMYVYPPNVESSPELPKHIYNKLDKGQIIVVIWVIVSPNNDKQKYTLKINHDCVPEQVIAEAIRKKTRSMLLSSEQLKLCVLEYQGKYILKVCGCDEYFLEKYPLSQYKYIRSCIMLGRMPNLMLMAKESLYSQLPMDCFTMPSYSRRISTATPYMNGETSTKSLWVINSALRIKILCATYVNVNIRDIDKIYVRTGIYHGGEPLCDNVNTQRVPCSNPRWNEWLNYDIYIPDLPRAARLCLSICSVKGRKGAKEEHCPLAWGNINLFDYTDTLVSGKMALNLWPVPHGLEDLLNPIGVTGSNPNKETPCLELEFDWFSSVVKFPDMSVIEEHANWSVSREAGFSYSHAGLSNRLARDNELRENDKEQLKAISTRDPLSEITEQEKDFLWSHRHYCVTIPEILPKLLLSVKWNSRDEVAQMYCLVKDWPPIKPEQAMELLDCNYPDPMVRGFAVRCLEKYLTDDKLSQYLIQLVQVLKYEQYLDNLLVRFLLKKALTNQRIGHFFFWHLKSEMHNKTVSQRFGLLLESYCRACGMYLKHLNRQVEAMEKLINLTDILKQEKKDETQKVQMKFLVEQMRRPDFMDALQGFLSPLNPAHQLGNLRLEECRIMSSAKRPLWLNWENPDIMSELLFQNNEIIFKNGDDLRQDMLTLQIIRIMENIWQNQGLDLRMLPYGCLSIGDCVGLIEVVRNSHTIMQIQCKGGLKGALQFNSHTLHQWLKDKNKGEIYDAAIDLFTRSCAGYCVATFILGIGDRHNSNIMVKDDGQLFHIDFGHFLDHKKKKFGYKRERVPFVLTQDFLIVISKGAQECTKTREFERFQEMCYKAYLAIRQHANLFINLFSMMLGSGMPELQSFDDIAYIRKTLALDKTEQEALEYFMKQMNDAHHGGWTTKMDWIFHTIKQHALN
T4 sequence (P48736 144-1102 limits assumed): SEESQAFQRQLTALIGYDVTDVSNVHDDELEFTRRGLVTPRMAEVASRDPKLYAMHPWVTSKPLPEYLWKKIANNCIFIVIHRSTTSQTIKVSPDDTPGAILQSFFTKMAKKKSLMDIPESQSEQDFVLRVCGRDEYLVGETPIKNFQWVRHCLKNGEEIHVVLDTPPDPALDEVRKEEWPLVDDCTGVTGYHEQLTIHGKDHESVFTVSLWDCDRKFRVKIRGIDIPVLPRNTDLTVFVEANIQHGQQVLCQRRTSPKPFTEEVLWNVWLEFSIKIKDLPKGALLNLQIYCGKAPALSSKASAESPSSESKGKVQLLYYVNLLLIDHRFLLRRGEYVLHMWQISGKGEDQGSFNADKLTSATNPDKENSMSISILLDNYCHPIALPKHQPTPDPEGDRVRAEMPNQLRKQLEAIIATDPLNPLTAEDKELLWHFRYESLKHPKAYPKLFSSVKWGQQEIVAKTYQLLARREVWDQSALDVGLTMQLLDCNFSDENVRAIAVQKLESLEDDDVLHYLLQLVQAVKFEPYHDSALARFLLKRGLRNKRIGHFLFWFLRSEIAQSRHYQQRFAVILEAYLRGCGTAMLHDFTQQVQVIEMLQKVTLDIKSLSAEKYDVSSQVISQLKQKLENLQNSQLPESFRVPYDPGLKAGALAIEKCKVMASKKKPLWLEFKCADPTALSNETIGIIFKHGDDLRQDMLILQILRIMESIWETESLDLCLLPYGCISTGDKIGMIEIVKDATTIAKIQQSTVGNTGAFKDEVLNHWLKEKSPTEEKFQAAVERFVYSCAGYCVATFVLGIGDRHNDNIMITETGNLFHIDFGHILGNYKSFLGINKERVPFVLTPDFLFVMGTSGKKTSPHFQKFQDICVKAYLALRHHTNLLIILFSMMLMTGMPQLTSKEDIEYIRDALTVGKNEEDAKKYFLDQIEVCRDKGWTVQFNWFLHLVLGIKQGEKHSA
T2 sequence (O00329 with tags, fused parts or gaps limits assumed): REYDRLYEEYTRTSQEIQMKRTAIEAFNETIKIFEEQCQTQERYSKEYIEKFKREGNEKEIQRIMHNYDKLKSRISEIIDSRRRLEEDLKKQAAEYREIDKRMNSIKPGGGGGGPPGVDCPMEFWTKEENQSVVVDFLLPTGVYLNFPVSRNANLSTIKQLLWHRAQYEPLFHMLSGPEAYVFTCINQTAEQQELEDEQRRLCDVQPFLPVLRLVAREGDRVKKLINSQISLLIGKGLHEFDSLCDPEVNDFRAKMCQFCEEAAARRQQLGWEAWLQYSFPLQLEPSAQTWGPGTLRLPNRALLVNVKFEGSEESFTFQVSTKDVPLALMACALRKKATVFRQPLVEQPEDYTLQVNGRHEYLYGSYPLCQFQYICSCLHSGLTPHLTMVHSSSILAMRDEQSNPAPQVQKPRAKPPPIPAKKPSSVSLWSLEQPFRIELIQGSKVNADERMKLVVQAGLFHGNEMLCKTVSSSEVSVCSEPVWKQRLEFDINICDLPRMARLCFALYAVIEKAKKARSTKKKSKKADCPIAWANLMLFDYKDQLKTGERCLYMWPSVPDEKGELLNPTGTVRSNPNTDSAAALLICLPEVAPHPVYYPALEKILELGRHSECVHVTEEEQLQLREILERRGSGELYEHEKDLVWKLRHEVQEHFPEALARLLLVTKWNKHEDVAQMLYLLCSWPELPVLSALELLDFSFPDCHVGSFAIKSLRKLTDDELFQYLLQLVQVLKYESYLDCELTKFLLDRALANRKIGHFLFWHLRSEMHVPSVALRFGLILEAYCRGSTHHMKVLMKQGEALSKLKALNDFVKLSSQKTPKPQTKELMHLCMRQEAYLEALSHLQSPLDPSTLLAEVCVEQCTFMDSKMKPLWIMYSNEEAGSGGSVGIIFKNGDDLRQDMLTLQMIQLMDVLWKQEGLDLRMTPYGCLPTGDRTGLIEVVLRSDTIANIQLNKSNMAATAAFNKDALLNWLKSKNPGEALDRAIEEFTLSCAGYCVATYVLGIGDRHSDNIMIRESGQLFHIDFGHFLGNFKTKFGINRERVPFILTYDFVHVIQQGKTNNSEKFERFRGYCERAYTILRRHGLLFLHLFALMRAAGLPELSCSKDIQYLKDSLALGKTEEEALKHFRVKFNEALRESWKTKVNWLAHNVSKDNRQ

| IC50 (PI3K alfa) [nM] | melting point [°C] | IC50 (PI3K delta) [nM] | IC50 (PI3K beta) [nM] | IC50 (PI3K gamma) [nM] | SMILES |
| --- | --- | --- | --- | --- | --- |
| 39 | 179 to 181 | 113 | 1020 | 516 | COC(=O)NCC1(COc2ccc(-c3ccc4ncc(-c5cnc(N)c(C(F)(F)F)c5)n4n3)cc2)COC1 [Example 173, (3-{4-[3-(6-Amino-5-trifluoromethyl-pyridin-3-yl)-imidazo[1,2-b]Pyridazin-6-yl]-phenoxymethyl}-oxetan-3-ylmethyl)-carbamic acid methyl ester] |
| 11 | 290 to 292 | 14 | 25 | 585 | Nc1ncc(-c2ccc3ncc(-c4ccc(CO)cc4)n3n2)cc1C(F)(F)F [Example 168, {4-[6-(6-Amino-5-trifluoromethyl-pyridin-3-yl)-imidazo[1,2-b]pyridazin-3-yl]-phenyl}-methanol] |
| 96 | 220 to 222 | 369 | 3290 | 810 | COC(=O)NC1(COc2ccc(-c3ccc4ncc(-c5cnc(N)c(C(F)(F)F)c5)n4n3)cc2)COC1 [Example 148, (3-{4-[3-(6-Amino-5-trifluoromethyl-pyridin-3-yl)-imidazo[1,2-b]pyridazin-6-yl]-phenoxymethyl}-oxetan-3-yl)-carbamic acid methyl ester] |
| 12 | 209 to 211 | 16 | 180 | 1080 | Nc1ncc(-c2ccc3ncc(-c4ccc(CN5CCC(C(=O)N6CCCC6)CC5)cc4)n3n2)cc1C(F)(F)F [Example 181] |
| 48 | 223 to 225 | 139 | 1050 | 461 | Nc1ncc(-c2cnc3ccc(-c4ccc(OCC5(CNC(=O)C6CC6)COC5)cc4)nn23)cc1C(F)(F)F [Example 172, Cyclopropanecarboxylic acid (3-{4-[3-(6-amino-5-trifluoromethyl-pyridin-3-yl)-imidazo[1,2-b]pyridazin-6-yl]-phenoxymethyl}-oxetan-3-ylmethyl)-amide] |
| 35 | 205 to 207 | 231 | 1480 | 2040 | CC(C)C(=O)NCC1(COc2ccc(-c3ccc4ncc(-c5cnc(N)c(C(F)(F)F)c5)n4n3)cc2)COC1 [Example 167] |
| 61 | 198 to 200 | 227 | 496 | 1310 | Nc1ncc(-c2cnc3ccc(-c4ccc(OCC5(N)COC5)cc4)nn23)cc1C(F)(F)F [Example 147, 5-{6-[4-(3-Amino-oxetan-3-ylmethoxy)-phenyl]-imidazo[1,2-b]pyridazin-3-yl}-3-trifluoromethyl-pyridin-2-yl amine] |

— patent US20100311729A1, “Substituted imidazopyridazines and pyrrolopyrimidines as lipid kinase inhibitors” (priority 2007, published 2010)
